For the experiment, the system named is patient derived xenografts (PDXs) of colorectal tumors. The experiment is described as follows: Therapy experiments in patient derived xenograft models, treated to control (T/C) ratio of tumor size. The conditions noted are these: monotherapy, 67 PDX models. Type of experiment: in vivo, NMRI: nu/nu mice.

Method: Transplantation of 239 human, primary colorectal tumors of patients with colorectal cancer of all four UICC stages was performed onto nude mice. […] For each drug and each of the 67 xenograft models, five mice were treated in addition to five control animals (335 animals plus 335 controls per drug). At the end of the therapy experiment, the median diameter of the tumors (C) of the 5 control animals is devided by the median diameter of the five treated animals (T).
Shortly after surgery, original colorectal cancer tumor pieces were shipped in gentamicin containing RPMI-1640 medium to the mouse facility. After arrival at the mouse facilities they were transplanted onto immunodeficient mice and were further passaged until a stably grown tumor xenografts has developed.
Surgical colorectal tumor samples were cut into pieces of 3 to 4 mm and transplanted within 30 min s.c. to 3 to 6 immunodeficient NOD/SCID mice (Taconic); the gender of the mice was chosen according to the donor patient. Additional tissue samples were immediately snap-frozen and stored at −80° C. for genetic, genomic, and protein analyses. […] Mice were observed daily for tumor growth. At a size of about 1 cm3, tumors were removed and passaged to naive NMRI: nu/nu mice (Charles River) for chemosensitivity testing. Tumors were passaged no more than 10 times. Numerous samples from early passages were stored in the tissue bank in liquid nitrogen and used for further experiments. […] All xenografts as well as the corresponding primary tumors were subjected to histological evaluation using snap-frozen, haematoxylin-eosin-stained tissue sections.
Each of the 75 tumors was transplanted onto 20 mice (5 controls and 5 for each drug).
The chemotherapeutic response of the passagable tumors was determined in male NMRI: nu/nu mice. For that purpose, one tumor fragment each was transplanted s.c. to a number of mice. At palpable tumor size (50-100 mm^3), 6 to 8 mice each were randomized to treatment and control groups and treatment was initiated. […] Doses and schedules were chosen according to previous experience in animal experiments and represent the maximum tolerated or efficient doses. The injection volume was 0.2 ml/20 g body weight.
Tumor size was measured in two dimensions twice weekly with a caliper-like instrument. Individual tumor volumes (V) were calculated by the formula: V=(length+[width]2)/2 and related to the values at the first day of treatment (relative tumor volume). Median treated to control (T/C) values of relative tumor volume were used for the evaluation of each treatment modality and categorized according to scores (− to ++++;). The mean tumor doubling time of each xenograft model was calculated by comparing the size between 2- and 4-fold relative tumor volumes. Statistical analyses were done with the U test (Mann and Whitney) with P<0.05. The body weight of mice was determined every 3 to 4 days and the change in body weight was taken as variable for tolerability.

Turning to “Bevacizumab: humanized monoclonal antibody that binds to vascular endothelial growth factor A (VEGF-A)”, the “Nonresponder PDXs” value came to 56 (T/C</=25 (T/C<25)), 54 (T/C</=30) and 48 (T/C</=35 (T/C<35)). Besides, the “Responder PDXs” value by setting is: (T/C</=30, tumor growth inhibited by at least 70%) 13; (T/C</=35 (T/C<35), tumor growth inhibited by at least 65%) 19.

These data come from US20160153032A9, “METHOD FOR PREDICTING A MANIFESTATION OF AN OUTCOME MEASURE OF A CANCER PATIENT” (Signature Diagnostics AG, priority 2013, published 2016).
